Experimental data as given in the supplement of paper PMC10307832.

Key:
Assay in all cases: relative viability (nuclei count vs DMSO), 5 days (fraction); higher = more cells survive
FH535 + Pictilisib = compound: CC1=C(C=CC(=C1)[N+](=O)[O-])NS(=O)(=O)C2=C(C=CC(=C2)Cl)Cl [FH535] + CS(=O)(=O)N1CCN(Cc2cc3nc(-c4cccc5[nH]ncc45)nc(N4CCOCC4)c3s2)CC1 [Pictilisib] (partner 1 µM)
Outline: (§1)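 Lung cancer cell lines were seeded in 1536-well plates and dosed by pin tool the next day, with either a single drug or a fixed anchor-drug dose combined with five library-drug doses (not always all listed) spaced in √10 steps. Five days later, one step fixed the cells and stained their nuclei (final 0.05% Triton X-100, 1% formaldehyde, 1 ug/ml Hoechst), and nuclei were counted on 4× images. Relative viability is the nuclei count in treated wells divided by the count in vehicle wells, and each value is the median of duplicate plates.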

FH535 + Phenformin = compound: CC1=C(C=CC(=C1)[N+](=O)[O-])NS(=O)(=O)C2=C(C=CC(=C2)Cl)Cl [FH535] + N=C(N)NC(=N)NCCc1ccccc1 [Phenformin] (partner 250 µM)
Outline: as §1

FH535 + Luminespib = compound: CC1=C(C=CC(=C1)[N+](=O)[O-])NS(=O)(=O)C2=C(C=CC(=C2)Cl)Cl [FH535] + CCNC(=O)c1noc(-c2cc(C(C)C)c(O)cc2O)c1-c1ccc(CN2CCOCC2)cc1 [Luminespib] (partner 0.01 µM)
Outline: as §1

FH535 + Linsitinib = compound: CC1=C(C=CC(=C1)[N+](=O)[O-])NS(=O)(=O)C2=C(C=CC(=C2)Cl)Cl [FH535] + C[C@]1(O)C[C@@H](c2nc(-c3ccc4ccc(-c5ccccc5)nc4c3)c3c(N)nccn32)C1 [Linsitinib] (partner 1 µM)
Outline: as §1

FH535 + Crizotinib = compound: CC1=C(C=CC(=C1)[N+](=O)[O-])NS(=O)(=O)C2=C(C=CC(=C2)Cl)Cl [FH535] + C[C@@H](Oc1cc(-c2cnn(C3CCNCC3)c2)cnc1N)c1c(Cl)ccc(F)c1Cl [Crizotinib] (partner 1 µM)
Outline: as §1

| Cell Line | relative viability (FH535 + Pictilisib; first compound 0.04 µM) | relative viability (FH535 + Pictilisib; first compound 0.1265 µM) | relative viability (FH535 + Pictilisib; first compound 0.4 µM) | relative viability (FH535 + Pictilisib; first compound 1.265 µM) | relative viability (FH535 + Phenformin; first compound 0.04 µM) | relative viability (FH535 + Phenformin; first compound 0.1265 µM) | relative viability (FH535 + Phenformin; first compound 0.4 µM) | relative viability (FH535 + Phenformin; first compound 1.265 µM) | relative viability (FH535 + Luminespib; first compound 0.04 µM) | relative viability (FH535 + Luminespib; first compound 0.1265 µM) | relative viability (FH535 + Luminespib; first compound 0.4 µM) | relative viability (FH535 + Luminespib; first compound 1.265 µM) | relative viability (FH535 + Linsitinib; first compound 0.04 µM) | relative viability (FH535 + Linsitinib; first compound 0.1265 µM) | relative viability (FH535 + Linsitinib; first compound 0.4 µM) | relative viability (FH535 + Linsitinib; first compound 1.265 µM) | relative viability (FH535 + Crizotinib; first compound 0.04 µM) | relative viability (FH535 + Crizotinib; first compound 0.1265 µM) | relative viability (FH535 + Crizotinib; first compound 0.4 µM) | relative viability (FH535 + Crizotinib; first compound 1.265 µM) |
| --- | --- | --- | --- | --- | --- | --- | --- | --- | --- | --- | --- | --- | --- | --- | --- | --- | --- | --- | --- | --- |
| NCI-H2228 | 0.327 | 0.416 | 0.369 | 0.305 | 0.241 | 0.377 | 0.288 | 0.224 | 0.127 | 0.152 | 0.156 | 0.0969 | 0.88 | 0.668 | 0.611 | 0.385 | 0.523 | 0.606 | 0.486 | 0.388 |
| NCI-H1975 | 0.274 | 0.274 | 0.296 | 0.244 | 0.384 | 0.402 | 0.35 | 0.256 | 0.178 | 0.22 | 0.164 | 0.167 | 0.95 | 0.986 | 0.925 | 0.784 | 1.06 | 1.08 | 0.948 | 0.842 |
| NCI-H650 | 0.766 | 0.972 | 0.959 | 0.643 | 0.411 | 0.417 | 0.388 | 0.289 | 0.639 | 0.732 | 0.796 | 0.619 | 0.687 | 1.09 | 0.832 | 0.603 | 0.694 | 0.854 | 0.738 | 0.567 |
| A-427 | 0.642 | 0.83 | 0.551 | 0.685 | 0.272 | 0.331 | 0.215 | 0.135 | 0.778 | 1.19 | 0.885 | 0.703 | 1.13 | 1.18 | 1.07 | 0.981 | 0.929 | 0.908 | 0.784 | 0.721 |
| LXF-289 | 0.69 | 0.793 | 0.758 | 0.681 | 0.474 | 0.486 | 0.472 | 0.384 | 0.635 | 0.837 | 0.611 | 0.61 | 0.949 | 0.938 | 0.897 | 0.697 | 0.795 | 0.832 | 0.74 | 0.567 |
| NCI-H838 | 0.462 | 0.427 | 0.379 | 0.387 | 0.512 | 0.722 | 0.445 | 0.309 | 0.278 | 0.419 | 0.261 | 0.247 | 0.987 | 1.03 | 0.938 | 0.908 | 0.959 | 0.962 | 0.797 | 0.654 |
| NCI-H1437 | 0.456 | 0.375 | 0.427 | 0.323 | 0.289 | 0.309 | 0.29 | 0.171 | 1.1 | 1 | 0.858 | 0.449 | 1.02 | 0.962 | 0.879 | 0.421 | 0.9 | 0.831 | 0.772 | 0.344 |
| SK-LU-1 | 0.503 | 0.568 | 0.487 | 0.4 | 0.563 | 0.622 | 0.491 | 0.305 | 0.181 | 0.21 | 0.198 | 0.214 | 1.06 | 1.17 | 1.16 | 0.678 | 1.15 | 0.793 | 0.849 | 0.703 |
| NCI-H1792 | 0.251 | 0.289 | 0.317 | 0.256 | 0.216 | 0.358 | 0.267 | 0.235 | 0.441 | 0.433 | 0.436 | 0.263 | 0.54 | 0.601 | 0.527 | 0.396 | 0.967 | 0.963 | 0.907 | 0.632 |
| HCC-44 | 0.67 | 0.556 | 0.564 | 0.538 | 0.242 | 0.191 | 0.125 | 0.176 | 1.09 | 1.16 | 1.02 | 0.575 | 0.704 | 0.647 | 0.705 | 0.469 | 0.908 | 0.755 | 0.75 | 0.682 |
| EPLC-272H | 0.263 | 0.349 | 0.299 | 0.249 | 0.242 | 0.352 | 0.234 | 0.159 | 0.277 | 0.357 | 0.505 | 0.197 | 1.04 | 1.17 | 1.03 | 1.05 | 0.943 | 1.07 | 0.868 | 0.838 |
| SK-MES-1 | 0.329 | 0.384 | 0.365 | 0.411 | 0.71 | 0.614 | 0.553 | 0.385 | 0.814 | 0.907 | 0.797 | 0.56 | 1.04 | 1.15 | 1.09 | 0.948 | 0.975 | 1.01 | 0.973 | 0.855 |
| NCI-H647 | 0.435 | 0.458 | 0.434 | 0.362 | 0.524 | 0.508 | 0.431 | 0.42 | 0.156 | 0.167 | 0.125 | 0.23 | 1.09 | 1.11 | 1.17 | 0.912 | 1.26 | 1.02 | 1.1 | 0.895 |
| NCI-H441 | 0.434 | 0.469 | 0.443 | 0.423 | 0.316 | 0.829 | 0.709 | 0.512 | 0.319 | 0.291 | 0.356 | 0.352 | 0.573 | 0.447 | 0.521 | 0.615 | 0.603 | 0.797 | 0.768 | 0.628 |
| NCI-H1563 | 0.631 | 0.657 | 0.627 | 0.637 | 0.665 | 0.669 | 0.644 | 0.563 | 0.491 | 0.556 | 0.615 | 0.52 | 1.2 | 1.07 | 1.25 | 1.04 | 0.871 | 0.948 | 0.88 | 0.757 |
